Source: patent publication US20070012632A1, “Synergistic composition and method for inhibiting growth of microorganisms” (priority 2005, published 2007)

Key:
Assay type in all cases: cell-based
[1] = tested on: total bacteria in paper mill white water; experiment: Total bacterial counts in white water, mill using mechanical pulp (Example 1); conditions: 50 minutes contact time; for Total bacterial counts: white water
Method: The furnish used in this mill is composed of about 50% TMP, 25% bleached Kraft pulp, and 25% broke. White water was collected and total bacterial counts were determined in samples with and without the addition of DMH stabilized chlorine (1:1 molar ratio of DMH to “Cl2) and/or PAA, after 50 minutes of contact time.

[2] = tested on: total bacteria in paper mill white water; experiment: Total bacterial counts in white water, mill using chemical pulp (Example 2); conditions: 30 minutes contact time; for Total bacterial counts: white water
Method: The furnish used on this paper machine is composed of about 60% bleached Kraft pulp, and 40% broke. White water was collected and total bacterial counts were determined in samples with and without the addition of DMH stabilized chlorine (1:1 molar ratio of DMH to “Cl2”), and/or PAA, after 30 minutes of contact time.

[3] = tested on: total bacteria in paper mill white water; experiment: Total bacterial counts in white water, very closed mill using chemical pulp (Example 3); set-up: Total bacterial counts: unit not given here; conditions: 30 minutes contact time; for Total bacterial counts: white water
Method: The furnish used in this mill is composed of about 75% bleached Kraft pulp, and 25% broke. White water was collected and total bacterial counts were determined in samples with and without the addition of DMH stabilized chlorine (1:1 molar ratio of DMH to “Cl2”), and/or PAA, after 30 minutes of contact time.

SMILES: CC(=O)OO [PAA, peracetic acid]
- Total bacterial counts ([1]; PAA 25 ppm product): 4 × 10^6
- Total bacterial counts ([1]; PAA 50 ppm product): 3 × 10^5
- Total bacterial counts ([1]; PAA 100 ppm product): 3 × 10^3
- Concentration alone achieving >3-log reduction in bacterial counts ([1]; biocide alone): 100 ppm
- Total bacterial counts ([2]; PAA 2.5 ppm product): 5.8 × 10^6
- Total bacterial counts ([2]; PAA 5 ppm product): 1.1 × 10^6
- Total bacterial counts ([2]; PAA 10 ppm product): 5 × 10^4
- Concentration alone achieving >3-log reduction in bacterial counts ([2]; biocide alone): > 10 ppm
- Total bacterial counts ([3]; PAA 50 ppm product): 4.5 × 10^6
- Total bacterial counts ([3]; PAA 75 ppm product): 1.6 × 10^6
- Total bacterial counts ([3]; PAA 100 ppm product): 3 × 10^5
- Total bacterial counts ([3]; PAA 150 ppm product): 10^3
- Total bacterial counts ([3]; PAA 200 ppm product): <10^2
- Concentration alone achieving 2-log reduction in bacterial counts ([3]; biocide alone): 150 ppm
